According to ChEMBL document CHEMBL1201862, “PubChem BioAssay data set” (2004):
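Growth conditions: 96-well plates. Treatment: test compound, 48 hours, 5 concentrations. Analysis: linear interpolation between bracketing concentrations; unreached endpoints set to highest concentration. GI50: concentration for 50% inhibition of growth.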 Active and inactive are the calls of the source. Cut-off read from the data, not from the text of the source: active = GI50 up to about 1.1 µM and inactive = higher.

Tests used:
Assay in all cases: NCI anticancer screen, dose series, 48 h
T47D = test system: T47D
Hs-578T = test system: Hs-578T
MDA-N = test system: MDA-N
M19-MEL = test system: M19-MEL
RXF 631 = test system: RXF 631
SNB-78 = test system: SNB-78
BT-549 = test system: BT-549
DMS-273 = test system: DMS-273
KM-20L2 = test system: KM-20L2

Structure (SMILES)	GI50 (T47D)	GI50 (Hs-578T)	GI50 (MDA-N)	GI50 (M19-MEL)	GI50 (RXF 631)	GI50 (SNB-78)	GI50 (BT-549)	GI50 (DMS-273)	GI50 (KM-20L2)
Cc1ccc(S(=O)(=O)NCCSCCNS(=O)(=O)c2ccc(C)cc2)cc1	> 100 µM (inactive)	> 100 µM (inactive)	> 100 µM (inactive)	–	–	–	–	–	–
CCOC(=O)C(=O)Nc1ccccc1CC	–	–	–	> 100 µM (inactive)	> 100 µM (inactive)	> 10 µM (inactive)	–	–	–
CC(C)OP(=O)(OC(C)C)c1ccc2c(c1)OCCOCCOCCOCCO2	> 100 µM (inactive)	> 100 µM (inactive)	> 100 µM (inactive)	–	–	–	> 100 µM (inactive)	–	–
COc1ccc(/C=N/n2cnc3[nH]c(C)c(Cc4ccccc4)c3c2=N)cc1	30.1 µM (inactive)	80.9 µM (inactive)	> 100 µM (inactive)	–	–	–	75 µM (inactive)	–	–
COc1cc2oc(-c3ccc(O)cc3)cc(=O)c2c(O)c1C1OC(CO)C(O)C(O)C1O (stereo not given)	–	–	–	> 100 µM (inactive)	–	> 100 µM (inactive)	–	62.4 µM (inactive)	> 100 µM (inactive)
O=P(O)(O)CN1CCN(CP(=O)(O)O)CCN(CP(=O)(O)O)CCN(CP(=O)(O)O)CC1	> 100 µM (inactive)	> 100 µM (inactive)	79.4 µM (inactive)	–	–	–	35.6 µM (inactive)	–	–
CC1=C(C(=O)Nc2ccccc2)C(c2ccc3c(c2)OCO3)C(C(=O)Nc2ccccc2)=C(C)N1	–	–	–	40.4 µM (inactive)	28.7 µM (inactive)	–	–	26.7 µM (inactive)	> 10 µM (inactive)
OCc1ccccc1C1CSCSC1	–	–	–	> 100 µM (inactive)	–	> 100 µM (inactive)	–	> 100 µM (inactive)	–
CC(C)(C)c1cc(C(=O)/C=C/c2ccc(C(=O)O)cc2)cc(C(C)(C)C)c1	5.56 µM (inactive)	1.42 µM (inactive)	2.32 µM (inactive)	–	–	–	2.21 µM (inactive)	–	–
CCCCCCCCCC/C=C/C=O	–	–	–	> 100 µM (inactive)	–	> 100 µM (inactive)	–	> 100 µM (inactive)	> 100 µM (inactive)
CC1(C)C[C@H]2C=C(C=O)[C@]34C[C@]3(C(=O)OC4O)[C@H]2C1 (stereo not given in full)	0.459 µM (active)	3.21 µM (inactive)	1.37 µM (inactive)	–	–	–	1.97 µM (inactive)	–	–
O=C(O)CN1C(=O)OC(c2ccccc2)C1=O (stereo not given)	> 100 µM (inactive)	> 100 µM (inactive)	> 100 µM (inactive)	–	–	–	> 100 µM (inactive)	–	–
COc1cccc(Nc2nc(-c3cccs3)nc3ccc(Br)cc23)c1	> 100 µM (inactive)	> 100 µM (inactive)	–	–	–	–	> 100 µM (inactive)	–	–
COc1ccc(Nc2nc3ccccc3nc2-c2cccs2)cc1	–	–	–	–	–	39.5 µM (inactive)	–	> 100 µM (inactive)	60 µM (inactive)
N#CCC(=O)N/N=C1/C(=O)N(c2ccc(Cl)cc2)C(=O)C(=O)C1c1nc2ccccc2s1 (stereo not given)	–	–	–	40.7 µM (inactive)	–	> 100 µM (inactive)	–	> 100 µM (inactive)	> 100 µM (inactive)
COc1cc(OC)c2nc(C)c3c(c2c1)OCC3	> 100 µM (inactive)	47.4 µM (inactive)	> 100 µM (inactive)	–	–	–	> 100 µM (inactive)	–	–
C=CC[N+](CCO)(CCO)CCCCCCCCCCCCCCCCCC	–	–	–	3.34 µM (inactive)	–	3.12 µM (inactive)	–	2.26 µM (inactive)	3.66 µM (inactive)
COc1ccc2cc(/C=N\NC(=O)Nc3cccc4ccccc34)ccc2c1	–	30.5 µM (inactive)	42 µM (inactive)	–	–	–	49.4 µM (inactive)	–	–
Nc1c2c(=O)[nH]c(=O)c2c(N)c2c(=O)c3ccccc3c(=O)c12	3.94 µM (inactive)	2.62 µM (inactive)	0.212 µM (active)	–	–	–	1.99 µM (inactive)	–	–
